Source: US20190274952A1, “TOPICAL USE OF AN ANTIMICROBIAL FORMULATION” (priority 2013, published 2019)
Like-named read-outs stand apart in the source and are kept apart here.

How the values were obtained:
[1] = cited from earlier work
[2] = system: Staphylococcus aureus (ATCC 6538); experiment: Minimal concentration for total antimicrobial activity, AOAC method 955.15 (Phenol Coefficient Method); type: cell-based; conditions: agent incorporated into formulation F, contact time 10 minutes
Description: The minimum concentration at which a total antimicrobial activity could be observed is determined for selected phenolic compounds of natural origin and selected essential oils using the AOAC method 955.15 (“Phenol Coefficient Method”) with minor modifications. Different concentrations of essential oils and phenolic compounds of natural origin are incorporated into formulation F (see table hereinbelow) and inoculated with a 0.05% bacterial suspension of Staphylococcus aureus (ATCC 6538; concentration of about 8 logs). After a contact time of 10 minutes, 0.1 ml of the inoculated solution is transferred to a broth culture with neutralizing (Difco 268110) and incubated over a period of 72 hours at 37° C. The presence of turbidity in the broth culture is indicative of the survival of the microorganism

Row | Compound | Minimal Concentration [2] | LD50 Oral-rat ([1]; ingredients of Formulation 1) | further results
1 | C=O [Formaldehyde] |  |  | LD50 ([1]; rat, in vivo, po): of 100 mg/Kg; LD50 Oral-rat ([1]; rat, in vivo, po): 100 mg/kg; Toxicity ([1]; rat, in vivo): Toxic
2 | C=CCc1ccc(O)c(OC)c1 [Eugenol] | 0.4 v/v % |  | 
3 | Sodium Laureth Sulfate |  | >5000 mg/kg | 
4 | Cc1ccc(C(C)C)cc1O [Carvacrol] | 0.07 v/v % |  | 
5 | CCCCCCCCCCCCCCCC[N+](C)(C)CC(=O)[O-] [Cetyl Betaine] |  | 1620 mg/kg | 
6 | CC(C)=CCCC(C)=CC=O [Citral] | >1% v/v % |  | 
7 | COCC(C)O (centres unmarked) [Glycol Ether PM] |  | 5 210 mg/kg | 
8 | Cc1ccc(C(C)C)c(O)c1 [Thymol] | 0.07 v/v % |  | 
9 | OCCCO [1,3-Propanediol] |  | >15 000 mg/kg | 
